Legend:
[1] = system: CH strain houseflies; assay: spray application of pyrethrum, percent knockdown as a function of time; assay type: in vivo; details: pyrethrum 100 + synergist 100 mg/cc
Protocol: The average percent knockdown of CH strain flies, as a function of time, resulting from spray application of pyrethrum, alone and with synergists, are given in Table XXXXIII. Duplicate tests were performed using 50 CH strain houseflies per test. Test solutions of 100 mg and 200mg of pyrethrum per cc of acetone, 200 mg of synergist per cc of acetone, and a mixture of 100 mg of pyrethrum and 100 mg of synergist per cc of acetone were prepared. The fifty CH strain houseflies were put in a 40 liter spray chamber and 1 cc of the test solution was sprayed into the test chamber with a spray pistol. The synergists alone at 200 mg/cc caused no knockdown.

[2] = system: houseflies; assay: topical application with Diazinon, Table XXVII (strain not given); assay type: in vivo; details: for mortality at 10 µg/fly: Musca domestica, topical, 24 h, Diazinon 0, synergist 10 μg/fly, read-out: percent kill after 24 hours, synergist alone (Table XXVII)

| SMILES | average percent knockdown, pyrethrum with synergist ([1]; 5 minutes) [%] | average percent knockdown, pyrethrum with synergist ([1]; 10 minutes) [%] | average percent knockdown, pyrethrum with synergist ([1]; 15 minutes) [%] | average percent knockdown, pyrethrum with synergist ([1]; 20 minutes) [%] | average percent knockdown, pyrethrum with synergist ([1]; 25 minutes) [%] | average percent knockdown, pyrethrum with synergist ([1]; 30 minutes) [%] | average percent knockdown, pyrethrum with synergist ([1]; 40 minutes) [%] | average percent knockdown, pyrethrum with synergist ([1]; 50 minutes) [%] | average percent knockdown, pyrethrum with synergist ([1]; 60 minutes) [%] | mortality at 10 µg/fly [2] [%] | percent kill after 24 hours, with Diazinon (Table XXVII) ([2]; Diazinon 5 + synergist 10 μg/fly) [%] |
| --- | --- | --- | --- | --- | --- | --- | --- | --- | --- | --- | --- |
| C#CCON=Cc1cccc2ccccc12 [I-I] | 4 | 7 | 19 | 29 | 40 | 49 | 57 | 86 | 92 | 0 |  |
| C#CCOCc1c(Cl)ccc(Cl)c1Cl [II-E] | 5 | 9 | 17 | 44 | 55 | 59 | 77 | 93 | 95 |  |  |
| C#CCON=Cc1ccc(Cl)cc1Cl [I-G] | 7 | 12 | 31 | 36 | 59 | 66 | 89 | 93 | 94 | 0 |  |
| C#CCON=C(C)c1ccc(Cl)cc1 [I-D] | 6 | 15 | 26 | 39 | 52 | 60 | 86 | 87 | 88 | 0 | 100 |

From patent US3954793A, “1-(2-Propynyl)-1 H-indazole compounds” (priority 1973, dated 1976)
